Tests used:
[1] = target: T1, cutinase from Colletotrichum capsici (Colletotrichum truncatum, UniProt P10951); assay: turbidimetric hydrolysis assay (OD630); type: biochemical; details: 30°C; substrate emulsion in 25 mM potassium phosphate pH 8.0, 0.5% gum arabic
T1 construct: gene CUTA; purchased recombinant protein

[2] = target: T1, cutinase from Colletotrichum capsici; assay: turbidimetric ester hydrolysis assay (OD630); type: biochemical; details: read-out: relative activity at 500 μg/ml berberine

T1 sequence (P10951 17-228): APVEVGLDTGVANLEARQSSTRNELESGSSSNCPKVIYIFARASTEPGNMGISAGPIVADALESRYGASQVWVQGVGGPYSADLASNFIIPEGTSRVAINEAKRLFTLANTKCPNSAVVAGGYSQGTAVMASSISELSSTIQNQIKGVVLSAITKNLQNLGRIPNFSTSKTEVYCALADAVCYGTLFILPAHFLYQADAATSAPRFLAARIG

SMILES	turbidimetric hydrolysis assay (OD630) [1]	activity at 500 µg/mL [2] [%]
CCCCCCCC(=O)OCC(COC(=O)CCCCCCC)OC(=O)CCCCCCC [Glyceryl trioctanoate]	larger reduced enzyme activities for longer chain substrates glyceryl trioctanoate and isopropyl myristate	–
COc1ccc2cc3[n+](cc2c1OC)CCc1cc2c(cc1-3)OCO2 [berberine]	–	78
CCCC(=O)OCC(COC(=O)CCC)OC(=O)CCC [Tributyrin]	For short chain substrate tributyrin, berberine conferred slight decrease of relative activity	–
